Data taken from patent US10315976B2, “Organic compounds” (Givaudan SA, priority 2013, dated 2019).

Experiments:
[1] = Chemical stability (thermal, alkaline and acidic media); format: physicochemical
[2] = findings of SCCS; cited from earlier work

Row | Stability in alkaline media [1] | Thermal stability [1] | Degradation in alkaline conditions ([1]; above pH 10, ambient temperature) | Degradation at elevated temperatures ([1]; above pH 10 or below about pH 4, elevated temperatures, compared with ambient) | Degradation in acidic conditions ([1]; below about pH 4, ambient temperature) | SMILES | Allergenicity [2]
1 | unstable in alkaline media | thermally unstable | rapidly degraded | degradation proceeds even more rapidly | rapidly degraded | CC(=CCCC=O)CCCC(C)(C)O [(I), 5,9-dimethyl-9-hydroxy-decen-4-al] | –
2 | – | – | – | – | – | CC(C)(O)CCCC1=CCC(C=O)CC1 (stereo not drawn) [cyclohexal, 4(4-hydroxy-4-methylpentyl) 3-cyclohexene carboxaldehyde] | allergenic concerns
